Measurements reported in BindingDB's records for doi:10.7270/Q2J101KZ (University of Pittsburgh, 2007).

Molecular target: T1, M-phase inducer phosphatase 2 (Homo sapiens, UniProt P30305)
T1 sequence (P30305 whole entry): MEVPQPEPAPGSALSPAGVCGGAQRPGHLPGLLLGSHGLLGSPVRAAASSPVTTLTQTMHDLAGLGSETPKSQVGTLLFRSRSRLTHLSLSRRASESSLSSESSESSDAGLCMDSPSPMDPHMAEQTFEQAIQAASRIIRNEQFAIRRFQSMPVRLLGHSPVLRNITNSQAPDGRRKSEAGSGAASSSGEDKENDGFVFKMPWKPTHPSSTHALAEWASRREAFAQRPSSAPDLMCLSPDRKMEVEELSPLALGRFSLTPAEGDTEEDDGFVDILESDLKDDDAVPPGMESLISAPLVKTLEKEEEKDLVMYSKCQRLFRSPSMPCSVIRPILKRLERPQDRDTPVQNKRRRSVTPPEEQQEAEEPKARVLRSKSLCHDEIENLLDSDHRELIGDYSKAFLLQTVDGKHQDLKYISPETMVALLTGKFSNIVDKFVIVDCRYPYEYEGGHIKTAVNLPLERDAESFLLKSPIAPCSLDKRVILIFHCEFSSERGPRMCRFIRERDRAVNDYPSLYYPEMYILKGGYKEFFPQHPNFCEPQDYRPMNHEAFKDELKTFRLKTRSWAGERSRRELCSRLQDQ
Experiment: Cdc25B catalytic domain phosphatase inhibitors, dose response, biochemical, with glutathione, probe assessment (AID 671)

Row | SMILES | IC50
1 | Cn1ncnc2c(=O)n(C)c(=O)nc1-2 | 35.5 µM
2 | O=C(O)C1Nc2c(O)cccc2C2C=CCC12 (stereo unspecified) | 6.76 µM
3 | [O-]/[N+](=C\c1ccncc1)c1ccccc1 | > 50 µM
4 | O=C(Nc1ccc2nc(-c3ccco3)c(-c3ccco3)nc2c1)N1CCCCCC1 | 23.7 µM
5 | N#Cc1c(N2CCCC2)nc(N)c2c(N)nc(N3CCCC3)cc12 [SMR000061605] | > 50 µM
6 | N#Cc1c(N)sc(=S)c2c1CCN(Cc1ccccc1)C2 [3-Amino-7-benzyl-1-thioxo-5,6,7,8-tetrahydro-1H-thiopyrano[3,4-c]pyridine-4-carbonitrile] | 43 µM
7 | Cc1ccc2c(c1C)NC(C(=O)O)C1CC=CC21 (stereo unspecified) | 4.73 µM
8 | O=C(OC1CCCCC1)c1ccc2c(c1)C1C=CCC1C(C(=O)O)N2 (stereo unspecified) [SMR000019385] | 2.79 µM
9 | CC(=O)Nc1cc(OC(C)=O)c2nonc2c1OC(C)=O [Acetic acid 7-acetoxy-5-acetylamino-benzo[1,2,5]oxadiazol-4-yl ester] | > 50 µM
10 | Cc1c(N=c2c(=O)c3ccccc3c2=O)c(=O)n(-c2ccccc2)n1C [MLS000105950] | > 50 µM
11 | COc1cccc2c(C)c(C(=O)O)[nH]c12 | 6.8 µM
12 | Cc1ccccc1Nc1cc2ccccc2c(O)n1 [3-[(2-methylphenyl)amino]-2H-isoquinolin-1-one] | > 50 µM
13 | O=C1Cc2ccccc2C(=O)N1CCc1ccccc1 [2-(2-phenylethyl)-4H-isoquinoline-1,3-dione] | > 50 µM
14 | CCn1nc(-c2ccccc2)nc2c(=O)n(C)c(=O)nc1-2 [1-Ethyl-6-methyl-3-phenyl-1H-pyrimido[5,4-e][1,2,4]triazine-5,7-dione] | > 50 µM
15 | Nc1cccc2cnccc12 [isoquinolin-5-amine] | > 50 µM
16 | O=C(NC1(O)C(=O)c2ccccc2C1=O)c1ccccc1 [N-(2-hydroxy-1,3-dioxo-2-indenyl)benzamide] | > 50 µM
17 | [O-]/[N+](=C\c1ccc(OC(F)F)cc1)c1ccccc1 [1-[4-(difluoromethoxy)phenyl]-N-phenylmethanimine oxide] | > 50 µM
18 | COc1ccc(Br)cc1C=c1sc2nc(-c3ccco3)nn2c1=O [5-[(5-bromanyl-2-methoxy-phenyl)methylidene]-2-(furan-2-yl)-[1,3]thiazolo[3,2-b][1,2,4]triazol-6-one] | 2.13 µM
19 | O=C1C=Cc2ccccc2C1=O [1,2-dihydronaphthalene-1,2-dione] | 25 µM
20 | c1ccc(CSc2nnc(-c3ccco3)c(-c3ccco3)n2)cc1 [MLS-0029114.0001] | 11.1 µM
21 | Oc1nc(Nc2ccccc2)cc2ccccc12 [MLS000043701] | > 50 µM
22 | CCOc1ccc2noc3c2c1C(=O)c1ccccc1-3 [MLS000106837] | > 50 µM
23 | COc1ccc2noc3c2c1C(=O)c1ccccc1-3 [MLS000106874] | > 50 µM
24 | CCOC(=O)C(C(=O)OCC)c1cc(Br)c2noc3c2c1C(=O)c1ccccc1-3 [MLS000038842] | > 50 µM
25 | CCn1nc(-c2cccs2)nc2c(=O)n(C)c(=O)nc1-2 [1-ethyl-6-methyl-3-thiophen-2-yl-pyrimido[5,4-e][1,2,4]triazine-5,7-dione] | > 50 µM
26 | COc1cccc2c1NC(C(=O)O)C1CC=CC21 (stereo unspecified) [SMR000009698] | 8.23 µM
